Data as given in US20240228986A1, “ENGINEERED CELLS, ENZYMES, AND METHODS FOR PRODUCING CANNABINOIDS” (priority 2021, published 2024).

Tested on: MPT21 (SEQ ID NO: 22; chimera of MPT1 and MPT4) as fusion GPS1.1-F11-MPT21 (SEQ ID NO: 25), expressed in Yarrowia
Assay: In vitro activity assay with microsomes of GPS1.1-F11-MPT21
Type: biochemical
Conditions: microsomes from Yarrowia sCL-SE-0128 + pCL-SE-0664; varying concentrations of OA and DVA; enzyme not purified to homogeneity
Protocol: Yarrowia cells sCL-SE-0128 expressing the fusion of GPS1.1 with MPT4 (pCL-SE-0406) and MPT21 (pCL-SE-0664) were grown at 30 mL culture at 30 C for 2 days in YNB with 20% glucose. The cells were collected by centrifugation, washed with homogenization buffer (MAK340-1KT Sigma Aldrich) and were resuspended in 2 mL of homogenization buffer. The suspended cells were transferred to 5 mL tubes containing 1 mL of glass beads and were homogenized by shaking for 5 min at max speed in a shaker (Retsch MM400). The lysed cells were transferred to new tubes and microsomes were prepared as described in the kit (MAK340-1KT). Activity assays were performed using microsomes from both enzymes and varying concentrations of OA and DVA.

SMILES: CCCc1cc(O)cc(O)c1C(=O)O [DVA, divarinic acid]
- Km: 62.2 µM

SMILES: CCCCCc1cc(O)cc(O)c1C(=O)O [OA, olivetolic acid]
- Km: 20.9 µM
